Assay results reported in US20090304692A1, “TRIAZINE COMPOUNDS AS PI3 KINASE AND MTOR INHIBITORS” (Wyeth, priority 2008, published 2009).
Like-named read-outs stand apart in the source and are kept apart here.

Key:
PI3K-γ = PI3K-γ (Homo sapiens, UniProt P48736); assay: PI3K-gamma fluorescence polarization assay; conditions: read-out: IC50 PI3Kγ
[1] = tested on: human prostate LNCap tumor cell line; assay: In vitro cell culture growth assay (MTS), LNCap; conditions: read-out: IC50 LNCap
PI3K-α = PI3K-α (Homo sapiens, UniProt P42336); assay: PI3K-alpha fluorescence polarization assay; conditions: read-out: IC50 PI3Kα
Chain of PI3K-α (P42336 whole entry, species assumed): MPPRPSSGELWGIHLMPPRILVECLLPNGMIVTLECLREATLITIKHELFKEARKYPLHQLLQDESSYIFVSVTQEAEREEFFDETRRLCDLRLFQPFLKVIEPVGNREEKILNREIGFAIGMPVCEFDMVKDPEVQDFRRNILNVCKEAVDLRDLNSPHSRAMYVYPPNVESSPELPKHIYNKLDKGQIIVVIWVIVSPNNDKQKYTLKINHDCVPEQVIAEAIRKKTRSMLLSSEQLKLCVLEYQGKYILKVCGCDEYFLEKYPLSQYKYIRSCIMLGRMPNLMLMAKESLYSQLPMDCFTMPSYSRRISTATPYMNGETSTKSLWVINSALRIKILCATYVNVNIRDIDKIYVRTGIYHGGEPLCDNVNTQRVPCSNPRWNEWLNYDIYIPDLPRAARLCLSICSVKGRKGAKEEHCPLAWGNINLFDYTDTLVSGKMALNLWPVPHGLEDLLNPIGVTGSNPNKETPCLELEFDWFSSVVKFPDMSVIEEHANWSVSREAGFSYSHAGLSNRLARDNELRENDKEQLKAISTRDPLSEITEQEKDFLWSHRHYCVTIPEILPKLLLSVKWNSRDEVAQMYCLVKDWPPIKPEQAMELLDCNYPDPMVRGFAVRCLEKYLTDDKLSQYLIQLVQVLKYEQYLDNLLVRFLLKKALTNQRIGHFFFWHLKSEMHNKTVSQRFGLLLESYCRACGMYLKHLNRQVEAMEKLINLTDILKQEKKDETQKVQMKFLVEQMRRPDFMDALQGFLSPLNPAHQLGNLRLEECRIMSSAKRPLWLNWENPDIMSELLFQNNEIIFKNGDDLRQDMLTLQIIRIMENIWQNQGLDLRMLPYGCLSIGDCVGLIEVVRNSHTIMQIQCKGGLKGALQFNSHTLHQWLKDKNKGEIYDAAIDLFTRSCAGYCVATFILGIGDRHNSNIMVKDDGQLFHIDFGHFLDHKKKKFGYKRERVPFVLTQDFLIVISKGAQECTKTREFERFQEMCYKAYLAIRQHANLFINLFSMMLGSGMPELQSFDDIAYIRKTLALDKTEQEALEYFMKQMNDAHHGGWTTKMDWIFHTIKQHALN
Chain of PI3K-α (P27986 whole entry partner, species assumed): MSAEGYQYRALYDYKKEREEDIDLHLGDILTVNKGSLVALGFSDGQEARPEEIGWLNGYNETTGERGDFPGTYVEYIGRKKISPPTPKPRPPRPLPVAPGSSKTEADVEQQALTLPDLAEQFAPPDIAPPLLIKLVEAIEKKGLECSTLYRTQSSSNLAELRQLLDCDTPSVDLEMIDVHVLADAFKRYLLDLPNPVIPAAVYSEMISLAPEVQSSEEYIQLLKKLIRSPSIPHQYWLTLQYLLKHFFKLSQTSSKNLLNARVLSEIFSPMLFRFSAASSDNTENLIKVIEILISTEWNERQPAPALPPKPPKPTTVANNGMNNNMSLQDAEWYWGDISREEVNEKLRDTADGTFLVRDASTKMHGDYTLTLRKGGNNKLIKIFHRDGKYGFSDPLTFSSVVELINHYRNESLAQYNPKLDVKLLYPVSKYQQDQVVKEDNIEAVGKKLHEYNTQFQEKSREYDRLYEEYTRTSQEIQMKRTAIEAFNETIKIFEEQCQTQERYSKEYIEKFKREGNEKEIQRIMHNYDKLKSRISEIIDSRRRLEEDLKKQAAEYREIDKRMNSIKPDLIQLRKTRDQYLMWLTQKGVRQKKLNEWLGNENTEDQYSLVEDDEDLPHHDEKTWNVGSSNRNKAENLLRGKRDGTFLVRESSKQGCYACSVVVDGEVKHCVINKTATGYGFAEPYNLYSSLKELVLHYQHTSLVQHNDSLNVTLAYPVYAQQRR

Human mTOR (FLAG-TOR) = Human mTOR (FLAG-TOR) (Homo sapiens, UniProt P42345); assay: mTOR kinase assay (DELFIA format, purified enzyme); assay type: biochemical; conditions: read-out: IC50 mTOR
Chain of Human mTOR (FLAG-TOR) (P42345 1360-2549 limits assumed): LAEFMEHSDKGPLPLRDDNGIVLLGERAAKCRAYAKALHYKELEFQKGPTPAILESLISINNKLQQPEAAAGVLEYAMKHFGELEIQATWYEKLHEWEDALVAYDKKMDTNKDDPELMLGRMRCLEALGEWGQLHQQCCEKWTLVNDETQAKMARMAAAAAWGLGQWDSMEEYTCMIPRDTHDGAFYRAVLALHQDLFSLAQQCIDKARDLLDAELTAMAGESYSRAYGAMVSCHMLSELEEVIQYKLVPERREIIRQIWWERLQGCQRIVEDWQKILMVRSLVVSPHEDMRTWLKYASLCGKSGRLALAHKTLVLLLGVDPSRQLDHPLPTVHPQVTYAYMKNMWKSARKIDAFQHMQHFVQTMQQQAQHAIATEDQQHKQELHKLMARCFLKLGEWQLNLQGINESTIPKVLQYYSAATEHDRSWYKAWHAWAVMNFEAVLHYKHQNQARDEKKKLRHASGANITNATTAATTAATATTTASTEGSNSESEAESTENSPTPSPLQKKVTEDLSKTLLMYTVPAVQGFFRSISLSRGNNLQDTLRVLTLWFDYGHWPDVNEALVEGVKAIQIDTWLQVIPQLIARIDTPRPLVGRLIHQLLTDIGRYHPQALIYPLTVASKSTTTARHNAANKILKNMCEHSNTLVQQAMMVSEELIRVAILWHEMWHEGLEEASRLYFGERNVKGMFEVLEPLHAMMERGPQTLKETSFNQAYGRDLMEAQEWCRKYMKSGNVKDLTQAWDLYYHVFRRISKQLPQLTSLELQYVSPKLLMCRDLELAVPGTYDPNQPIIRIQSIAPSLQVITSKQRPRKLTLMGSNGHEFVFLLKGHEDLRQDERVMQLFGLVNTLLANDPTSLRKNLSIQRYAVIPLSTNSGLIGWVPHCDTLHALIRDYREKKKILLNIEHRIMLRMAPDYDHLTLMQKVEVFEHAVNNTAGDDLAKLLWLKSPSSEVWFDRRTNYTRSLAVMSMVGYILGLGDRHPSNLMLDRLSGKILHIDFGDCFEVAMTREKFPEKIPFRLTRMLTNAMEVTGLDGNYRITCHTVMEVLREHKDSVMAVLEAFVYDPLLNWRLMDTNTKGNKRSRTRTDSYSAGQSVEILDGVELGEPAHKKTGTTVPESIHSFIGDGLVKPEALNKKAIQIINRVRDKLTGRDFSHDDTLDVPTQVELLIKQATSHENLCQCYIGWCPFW

[2] = tested on: human prostate PC3-mm2 tumor cell line; assay: In vitro cell culture growth assay (MTS), PC3-mm2; assay type: cell-based; conditions: Homo sapiens, PC3MM2, 72 h, PC3-mm2 cells, MTS, three days after drug treatment; read-out: IC50 PC3-mm2
[3] = tested on: human breast MDA-MB-361 tumor cell line; assay: In vitro cell culture growth assay (MTS), MDA-MB-361; assay type: cell-based; conditions: Homo sapiens, MDA-MB-361 cells, MTS, three days after drug treatment, read-out: IC50 MDA-MB-361
[4] = MTS cell growth assay, three days after drug treatment

Chain of PI3K-γ (P48736 whole entry, species assumed): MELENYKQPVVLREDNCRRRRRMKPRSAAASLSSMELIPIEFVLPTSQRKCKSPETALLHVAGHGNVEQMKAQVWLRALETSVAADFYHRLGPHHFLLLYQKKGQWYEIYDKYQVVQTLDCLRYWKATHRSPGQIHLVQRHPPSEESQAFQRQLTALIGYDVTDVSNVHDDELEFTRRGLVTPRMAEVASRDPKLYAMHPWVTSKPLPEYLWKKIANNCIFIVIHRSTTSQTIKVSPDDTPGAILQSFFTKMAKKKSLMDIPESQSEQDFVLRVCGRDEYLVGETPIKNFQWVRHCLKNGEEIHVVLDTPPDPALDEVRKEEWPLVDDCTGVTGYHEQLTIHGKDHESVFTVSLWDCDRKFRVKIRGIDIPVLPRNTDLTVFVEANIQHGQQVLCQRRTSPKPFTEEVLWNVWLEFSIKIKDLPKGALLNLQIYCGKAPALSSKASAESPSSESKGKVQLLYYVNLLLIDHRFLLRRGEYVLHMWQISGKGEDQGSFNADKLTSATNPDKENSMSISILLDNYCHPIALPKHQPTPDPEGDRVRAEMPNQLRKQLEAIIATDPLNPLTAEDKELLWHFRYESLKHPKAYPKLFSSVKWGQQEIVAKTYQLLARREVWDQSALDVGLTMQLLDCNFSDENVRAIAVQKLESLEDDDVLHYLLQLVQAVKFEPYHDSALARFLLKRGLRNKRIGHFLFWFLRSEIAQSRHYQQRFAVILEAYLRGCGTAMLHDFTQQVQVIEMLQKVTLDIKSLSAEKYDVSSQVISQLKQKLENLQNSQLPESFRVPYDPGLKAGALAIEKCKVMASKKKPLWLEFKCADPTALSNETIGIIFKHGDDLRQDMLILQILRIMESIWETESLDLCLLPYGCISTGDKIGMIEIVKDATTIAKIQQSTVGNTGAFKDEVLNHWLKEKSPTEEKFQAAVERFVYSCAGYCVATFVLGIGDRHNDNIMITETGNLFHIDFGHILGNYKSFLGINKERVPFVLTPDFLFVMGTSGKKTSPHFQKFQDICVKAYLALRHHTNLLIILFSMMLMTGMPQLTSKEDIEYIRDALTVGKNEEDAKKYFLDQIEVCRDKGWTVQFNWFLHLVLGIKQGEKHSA

Compound	IC50 (PI3K-γ) [µM]	IC50 (PI3K-α) [µM]	IC50 ([1]; Homo sapiens, LNCaP, 72 h) [µM]	IC50 (PI3K-γ; listed as 334) [µM]	IC50 (PI3K-α; listed as 334) [µM]	IC50 (Human mTOR (FLAG-TOR)) [µM]	IC50 [2] [µM]	IC50 ([3]; MDA-MB-361, 72 h) [µM]	IC50 [1, 4] [µM]	IC50 ([3]; 72 h) [µM]
1-(4-{4-[(1-methylethyl)amino]-6-(8-oxa-3-azabicyclo[3.2.1]oct-3-yl)-1,3,5-triazin-2-yl}phenyl)-3-[6-(4-methylpiperazin-1-yl)pyridin-3-yl]urea [Example 216]	7.03	0.521	–	–	–	–	–	–	0.05	–
O=C(Nc1ccc(-c2nc(N3C4CCC3COC4)nc(N3C4CCC3COC4)n2)cc1)N1CCNCC1 [Example 286, N-[4-(4,6-di-3-oxa-8-azabicyclo[3.2.1]oct-8-yl-1,3,5-triazin-2-yl)phenyl]piperazine-1-carboxamide]	–	4.2	32	–	–	–	–	–	–	–
CC(C)N1CCN(c2ccc(NC(=O)Nc3ccc(-c4nc(C5CCOCC5)nc(N5C6CCC5COC6)n4)cc3)cc2)CC1 [Example 435, 1-(4-(4-(3-oxa-8-azabicyclo[3.2.1]octan-8-yl)-6-(tetrahydro-2H-pyran-4-yl)-1,3,5-triazin-2-yl)phenyl)-3-(4-(4-isopropylpiperazin-1-yl)phenyl)urea]	4.6	–	0.004	–	–	–	–	–	–	–
CC(C)N1CCN(C(=O)c2ccc(NC(=O)Nc3ccc(-c4nc(C5CCOCC5)nc(N5C6CCC5COC6)n4)cc3)cc2)CC1 [Example 439, 1-(4-(4-(3-oxa-8-azabicyclo[3.2.1]octan-8-yl)-6-(tetrahydro-2H-pyran-4-yl)-1,3,5-triazin-2-yl)phenyl)-3-(4-(4-isopropylpiperazine-1-carbonyl)phenyl)urea]	–	–	0.001	–	–	–	–	–	–	–
CCN1CCN(C(=O)c2ccc(NC(=O)Nc3ccc(-c4nc(N5CCOCC5)nc(N5C6CCCC5COC6)n4)cc3)cc2)CC1 [Example 804, 1-{4-[(4-ethylpiperazin-1-yl)carbonyl]phenyl}-3-{4-[4-morpholin-4-yl-6-(3-oxa-9-azabicyclo[3.3.1]non-9-yl)-1,3,5-triazin-2-yl]phenyl}urea]	0.0595	0.006	–	–	–	0.000425	0.011	0.003	–	–
CCN1CCN(C(=O)c2ccc(NC(=O)Nc3ccc(-c4nc(N5CCOCC5)nc(N5C6COCC5COC6)n4)cc3)cc2)CC1 [Example 806, 1-{4-[4-(3,7-dioxa-9-azabicyclo[3.3.1]non-9-yl)-6-morpholin-4-yl-1,3,5-triazin-2-yl]phenyl}-3-{4-[(4-ethylpiperazin-1-yl)carbonyl]phenyl}urea]	0.047	0.0045	–	–	–	0.00024	0.009	< 0.0032	–	–
O=C(Nc1ccncc1)Nc1ccc(-c2nc(N3CCOCC3)nc(N3C4COCC3[C@@H](O)C4)n2)cc1 (stereo partly drawn) [Example 818, 1-(4-{4-[(6S)-6-hydroxy-3-oxa-8-azabicyclo[3.2.1]oct-8-yl]-6-morpholin-4-yl-1,3,5-triazin-2-yl}phenyl)-3-pyridin-4-ylurea]	0.185	0.0377	–	–	–	0.002	0.237	–	–	0.129
O=C(Nc1ccncc1)Nc1ccc(-c2nc(N3CCOCC3)nc(N3C4COCC3C(OCc3ccccc3)C4)n2)cc1 (stereo not drawn) [Example 819, 1-(4-{4-[6-(benzyloxy)-3-oxa-8-azabicyclo[3.2.1]oct-8-yl]-6-morpholin-4-yl-1,3,5-triazin-2-yl}phenyl)-3-pyridin-4-ylurea]	0.357	0.044	–	–	–	0.017	0.768	–	–	0.442

Continued, in another order:

IC50 (PI3K-γ) [µM]	IC50 (PI3K-α) [µM]	IC50 ([1]; Homo sapiens, LNCaP, 72 h) [µM]	IC50 (PI3K-γ; listed as 334) [µM]	IC50 (PI3K-α; listed as 334) [µM]	IC50 (Human mTOR (FLAG-TOR)) [µM]	IC50 [2] [µM]	IC50 ([3]; MDA-MB-361, 72 h) [µM]	Compound	IC50 [1, 4] [µM]	IC50 ([3]; 72 h) [µM]
–	–	1.5	–	–	–	–	–	O=C(Nc1ccncc1)Nc1ccc(-c2nc(OCCN3CCCCC3)nc(N3CC4CCC(C3)O4)n2)cc1 [Example 144, 1-{4-[4-(8-oxa-3-azabicyclo[3.2.1]oct-3-yl)-6-(2-piperidin-1-ylethoxy)-1,3,5-triazin-2-yl]phenyl}-3-pyridin-4-ylurea]	–	–
9.53	4.53	10	–	–	–	–	–	CNC(=O)Nc1ccc(-c2nc(N3CC4CCC(C3)O4)nc(N3CC4CNCC(C3)O4)n2)cc1 [Example 234, 1-methyl-3-{4-[4-(8-oxa-3-azabicyclo[3.2.1]oct-3-yl)-6-(9-oxa-3,7-diazabicyclo[3.3.1]non-3-yl)-1,3,5-triazin-2-yl]phenyl}urea]	–	–
4.11	3.21	7.9	–	–	–	–	–	O=C(Nc1ccc(-c2nc(N3CC4CCC(C3)O4)nc(N3CC4CNCC(C3)O4)n2)cc1)Nc1cccnc1 [Example 235, 1-{4-[4-(8-oxa-3-azabicyclo[3.2.1]oct-3-yl)-6-(9-oxa-3,7-diazabicyclo[3.3.1]non-3-yl)-1,3,5-triazin-2-yl]phenyl}-3-pyridin-3-ylurea]	–	–
10	1.82	–	–	–	–	–	–	CN1CCN(c2ccc(NC(=O)Nc3ccc(-c4nc(N5C[C@H]6C[C@@H]5CO6)nc(N5C[C@H]6C[C@@H]5CO6)n4)cc3)cc2)CC1 [Example 314, 1-{4-[4,6-di-(1R,4R)-2-oxa-5-azabicyclo[2.2.1]hept-5-yl-1,3,5-triazin-2-yl]phenyl}-3-[4-(4-methylpiperazin-1-yl)phenyl]urea]	0.55	–
6.83	0.216	0.12	–	–	–	–	–	CNC(=O)Nc1ccc(-c2nc(Nc3ccc(N4CCN(C)CC4)cc3)nc(N3CC4CCC(C3)O4)n2)cc1 [Example 317, 1-methyl-3-{4-[4-{[4-(4-methylpiperazin-1-yl)phenyl]amino}-6-(8-oxa-3-azabicyclo[3.2.1]oct-3-yl)-1,3,5-triazin-2-yl]phenyl}urea]	–	–
0.679	0.0155	1	0.68	0.016	–	–	–	CN1CCN(c2ccc(Nc3nc(-c4ccc(NC(=O)Nc5ccc(C(N)=O)cc5)cc4)nc(N4CC5CCC(C4)O5)n3)cc2)CC1 [Example 318, 4-[({4-[4-{[4-(4-methylpiperazin-1-yl)phenyl]amino}-6-(8-oxa-3-azabicyclo[3.2.1]oct-3-yl)-1,3,5-triazin-2-yl]phenyl}carbamoyl)amino]benzamide]	–	–
0.0305	0.0028	–	–	–	0.00205	0.026	0.002	CN(C)C1CCN(C(=O)c2ccc(NC(=O)Nc3ccc(-c4nc(N5CCOCC5)nc(N5CC6CCC5CO6)n4)cc3)cc2)CC1 (stereo not drawn) [Example 810, 1-(4-{[4-(dimethylamino)piperidin-1-yl]carbonyl}phenyl)-3-{4-[4-morpholin-4-yl-6-(2-oxa-5-azabicyclo[2.2.2]oct-5-yl)-1,3,5-triazin-2-yl]phenyl}urea]	–	–
0.0335	0.0032	–	–	–	0.0015	0.019	0.002	CC(C)N1CCN(C(=O)c2ccc(NC(=O)Nc3ccc(-c4nc(N5CCOCC5)nc(N5CC6CCC5CO6)n4)cc3)cc2)CC1 (stereo not drawn) [Example 811, 1-(4-{[4-(1-methylethyl)piperazin-1-yl]carbonyl}phenyl)-3-{4-[4-morpholin-4-yl-6-(2-oxa-5-azabicyclo[2.2.2]oct-5-yl)-1,3,5-triazin-2-yl]phenyl}urea]	–	–
0.0305	0.0028	–	–	–	0.002	0.023	0.003	CCN1CCN(C(=O)c2ccc(NC(=O)Nc3ccc(-c4nc(N5CCOCC5)nc(N5CC6CCC5CO6)n4)cc3)cc2)CC1 (stereo not drawn) [Example 812, 1-{4-[(4-ethylpiperazin-1-yl)carbonyl]phenyl}-3-{4-[4-morpholin-4-yl-6-(2-oxa-5-azabicyclo[2.2.2]oct-5-yl)-1,3,5-triazin-2-yl]phenyl}urea]	–	–
0.03	0.0031	–	–	–	0.0019	0.024	< 0.0032	CN1CCN(C(=O)c2ccc(NC(=O)Nc3ccc(-c4nc(N5CCOCC5)nc(N5CC6CCC5CO6)n4)cc3)cc2)CC1 (stereo not drawn) [Example 813, 1-{4-[(4-methylpiperazin-1-yl)carbonyl]phenyl}-3-{4-[4-morpholin-4-yl-6-(2-oxa-5-azabicyclo[2.2.2]oct-5-yl)-1,3,5-triazin-2-yl]phenyl}urea]	–	–
0.01	0.0008	–	–	–	0.00105	0.037	0.004	O=C(Nc1ccc(C(=O)N2CCNCC2)cc1)Nc1ccc(-c2nc(N3CCOCC3)nc(N3CC4CCC3CO4)n2)cc1 (stereo not drawn) [Example 814, 1-{4-[4-morpholin-4-yl-6-(2-oxa-5-azabicyclo[2.2.2]oct-5-yl)-1,3,5-triazin-2-yl]phenyl}-3-[4-(piperazin-1-ylcarbonyl)phenyl]urea]	–	–
0.024	0.0019	–	–	–	0.000765	0.024	–	CN(C)CCNC(=O)c1ccc(NC(=O)Nc2ccc(-c3nc(N4CCOCC4)nc(N4CC5CCC4CO5)n3)cc2)cc1 (stereo not drawn) [Example 815, N-[2-(dimethylamino)ethyl]-4-[({4-[4-morpholin-4-yl-6-(2-oxa-5-azabicyclo[2.2.2]oct-5-yl)-1,3,5-triazin-2-yl]phenyl}carbamoyl)amino]benzamide]	–	0.003
0.026	0.0024	–	–	–	0.00106	0.011	–	CN(C)CCN(C)C(=O)c1ccc(NC(=O)Nc2ccc(-c3nc(N4CCOCC4)nc(N4CC5CCC4CO5)n3)cc2)cc1 (stereo not drawn) [Example 816, N-[2-(dimethylamino)ethyl]-N-methyl-4-[({4-[4-morpholin-4-yl-6-(2-oxa-5-azabicyclo[2.2.2]oct-5-yl)-1,3,5-triazin-2-yl]phenyl}carbamoyl)amino]benzamide]	–	0.002
